Entries after “also recorded” stand apart in the source; their conditions may differ. Read-outs that look alike come from different tables or passages of the source.
Assays:
[1] = cited from earlier work; for True classification: IDILI in human patients; for IDILI liability: criteria of Xu et al. (2008); for pattern of liver injury in humans: human patients
[2] = Logistic regression classification model: probability that a drug is associated with IDILI; parameters: species or system human; conditions: for classification by the best-performing model: optimal cutoff; for Estimated probability: probability that drug is associated with IDILI, covariates Deltadiff, EC50 VEH, EC50 TNF, Delta VEH, Cmax, optimal cutoff 0.46
Text: Classification modeling using defined covariates. In the second phase of analysis, classification models were developed using logistic regression with covariates as independent variables in the analysis and known IDILI classification as the dependent variable. A model selection process was used to determine if a covariate or set of covariates is associated with IDILI liability. Covariates were first evaluated individually to determine how well a particular covariate classified drugs according to IDILI liability, and then covariates were evaluated in combination. Combinations of covariates were selected to maximize the ability of the model to distinguish between drugs associated or not with IDILI. Specifically, covariates that describe changes in efficacy (Delta, Deltadiff, etc.) were paired with covariates that describe changes in potency (EC50, EC10, R10, etc.) to find covariate combinations that led to models that most accurately discriminated between drugs that are and are not associated with IDILI. […] The logistic regression models follow the equation: […]
where ŷi is the calculated (predicted) probability that drug i with a vector of covariates xi is associated with IDILI. The β coefficients (β0, the regression intercept; and βi, the regression slopes for model covariates, xi) were derived from the logistic regression models using 1) combinations of the covariates (xi) generated by concentration-response modeling for each of the 24 drugs evaluated in this study, and 2) the true IDILI classification for the dependent variable yi (i.e., 1 for IDILI+drugs and 0 for IDILI-drugs). […] This occurs when a covariate almost perfectly separates observations into the appropriate categories. […] When separation or quasi-complete separation occurs, use of the standard method (i.e., maximum likelihood estimation) provides biased, unreliable estimates of βi.
Receiver operating characteristic (ROC) analysis. In the third phase of the statistical approach, the classification models, generated as logistic regression models using single covariates or combinations of covariates, were evaluated by ROC analysis to determine which model and corresponding sets of covariates led to the most accurate classification of drugs according to their potential to cause IDILI. An ROC curve was created for each model by graphing the true positive rate (sensitivity; i.e., proportion of drugs correctly classified as associated with IDILI) against the false positive rate (1-specificity; i.e., proportion of drugs incorrectly classified as associated with IDILI) at various probability cutoff thresholds (k). […] An area under the curve (AUC) and confidence interval was computed for each ROC curve (where each logistic regression model has one ROC curve). […] Corresponding to each ROC curve is an optimal threshold value (k*), the threshold yielding the highest point of accuracy on the curve (i.e., the point nearest the point […] on the curve). Thus, each ROC curve has a corresponding AUC and an optimal cutoff (k*) that corresponds to the highest point of accuracy on that ROC curve.

[3] = maximal plasma concentration after pharmacologic dosing in human patients; cited from earlier work
HepG2 cells = assay: Drug/cytokine-induced cytotoxicity (% LDH release) concentration-response in HepG2 cells; assay type: cell-based, human; parameters: key to Deltadiff: LDH release percentage points (drug/TNF Delta minus drug/VEH Delta); conditions: for R10 / R10 IFN / R10 TNF / R10 TNF/IFN: 10 percent increase in LDH response above min, 0 when D10 = 0; for R10 / Emax / D10 (LDH rise of at least 10 points, yes/no) / EC10: drug alone (VEH); for R10 IFN: with IFN; for R10 TNF: with TNF; for R10 TNF/IFN / EC10 TNF/IFN: with TNF and IFN; for Deltadiff: Delta of drug/TNF curve minus Delta of drug/VEH curve (LDH percentage); for cytotoxic interaction of drug with TNF: TNF 10 ng/ml; for cytotoxicity of drug on its own (LDH release): absence of cytokines; for Emax / D10 (LDH rise of at least 10 points, yes/no): Homo sapiens, HepG2; for TNF change: D10TNF − D10VEH; for EC10: value corresponding to 10% of Delta (max-min); for EC10 TNF: with TNF 10 ng/ml
Procedure: Cells were passed or used for experiments when they reached approximately 80% confluence. Cells were used at passage 6-16.
HepG2 cells were plated at a density of 4×10^4 cells per well in black-walled, 96-well, tissue culture plates and were allowed to attach overnight before being treated with compounds. Drugs were reconstituted in vehicles consisting of sterile water or DMSO (concentration less than 0.5%). Cells were treated with various concentrations of the drug or its vehicle (control) alone or in combination with the cytokines TNF (10 ng/ml) and/or IFN (10 ng/ml) or their PBS vehicle (VEH). Cytotoxicity was evaluated as lactate dehydrogenase (LDH) activity released from the cells into culture medium using the Homogeneous Membrane Integrity Assay kit from Promega (Madison, Wis.).
Concentration-response curves were generated for 24 drugs, 14 of which are associated with human IDILI and 10 of which are not. […] This was necessary because four-parameter logistic modeling used in the statistical analysis requires well defined, sigmoidal concentration-response curves. Cells were exposed to drug/cytokine combinations for 24 hours. For analysis of drug concentration-response data, concentrations of each drug were expressed as a fraction of its Cmax.
Defining covariates: four-parameter logistic model. In the first phase, variables (potential covariates) for use in the classification analysis were defined from the analysis of drug concentration-response data. Initially, a one-way analysis of variance (ANOVA) was used as an omnibus test to determine if a particular treatment (e.g. drug alone or in combination with TNF and/or IFN) caused a significant change in LDH release relative to baseline (i.e., LDH release in the absence of drug, hereafter designated “min”). The criterion for significance for the ANOVA was set at α=0.01. A 1% level of significance was used to rule out more vigorously marginal relationships between concentration and response.
where LDH(x) is the percentage of LDH released at a given concentration x; x=[drug]/Cmax; min=the % LDH release at 0 drug concentration (i.e., baseline); and max=the maximal LDH response (i.e., maximum % LDH release).
where D10 is a categorical variable related to reaching a threshold LDH response above which a drug is classified as positively associated with IDILI. D10 is defined as 0 if Delta<10% LDH release and as 1 if Delta≥10% LDH release.
The base covariate R10 represents the [drug]/Cmax value associated with an increase in 10 LDH percentage points above min for a particular treatment condition and was determined by the equation:
R10 was considered to be 0 when the Delta<10% LDH (i.e. when D10=0).
EC50 quotient, EC10 quotient and R10 quotient represent the ratio between the EC50, EC10 or R10 of the drug/cytokine concentration-response curve and the respective value for the drug/VEH concentration-response curve. In some instances, the value derived from this calculation is indeterminate (i.e. when the denominator=0). In order to incorporate the quotient values into the classification models described below, the categorical variable “Q” was used to eliminate the possibility of the quotient being indeterminate. Q is defined as 0 if Delta VEH and/or Delta cytokine is <10% LDH and 1 if both Delta VEH and Delta cytokine are ≥10% LDH. […] The same condition was applied for calculation of EC10 quotient and R10 quotient.
Deltadiff represents the difference between the Delta of the drug/cytokine concentration-response curve and the Delta of the drug/VEH curve. In other words, Deltadiff=(Delta cytokine)−(Delta VEH). FIG. 1 graphically illustrates several of the covariates defined above. […] In addition to the covariates derived from the concentration-response curves, the maximal therapeutic plasma drug concentration (Cmax) in human patients was used in some models (Table 1).

[4] = categorical, Delta threshold 10 LDH percentage points, read-out: D10
[5] = maximal LDH response, 24 h, read-out: max
[6] = categorical, Delta threshold 10 LDH percentage points
[7] = value corresponding to 10% of Delta, NA = no significant increase

Structure (SMILES) | True classification [1] | IDILI liability [1] | pattern of liver injury in humans [1] | classification by the best-performing model [2] | Estimated probability [2] | Cmax [3] [µM] | R10 (HepG2 cells) | R10 IFN (HepG2 cells) | R10 TNF (HepG2 cells) | R10 TNF/IFN (HepG2 cells) | Deltadiff (HepG2 cells) | cytotoxic interaction of drug with TNF (HepG2 cells; HepG2, 24 h) | cytotoxicity of drug on its own (LDH release) (HepG2 cells; HepG2, 24 h) | Emax (HepG2 cells; [4]) [%] | Emax (HepG2 cells; [5]) [%] | TNF change (HepG2 cells; categorical) | D10 (LDH rise of at least 10 points, yes/no) (HepG2 cells; [6]) [%] | EC10 (HepG2 cells; NA = no significant increase) | EC10 TNF (HepG2 cells; [7]) | EC10 TNF/IFN (HepG2 cells; [7]) | further results
O=C(O)[C@H]1/C(=C/CO)O[C@@H]2CC(=O)N21 [Clavulanate] | IDILI+ | IDILI+ | cholestatic pattern of injury | correctly as IDILI1 | 0.9509 | 12 | 0 [drug]/Cmax | 0 [drug]/Cmax | 0 [drug]/Cmax | 0 [drug]/Cmax | 3.1 | interacted only weakly with TNF | caused no cytotoxicity on their own | < 10 | 17.4 | 0 |  |  |  |  | cytotoxic interaction of drug with TNF (HepG2 cells; HepG2, 24 h, listed as clavulanate): synergized with TNF to cause cytotoxicity; also recorded: small but statistically significant
COc1cccc2c1C(=O)c1c(O)c3c(c(O)c1C2=O)C[C@@](O)(C(=O)CO)C[C@@H]3O[C@H]1C[C@H](N)[C@H](O)[C@H](C)O1 [Doxorubicin] | IDILI+ | IDILI+ |  |  | 0.8839 | 1 | 12.4 [drug]/Cmax | 9.7 [drug]/Cmax | 2.0 [drug]/Cmax | 0.7 [drug]/Cmax | −15.2 | TNF significantly enhanced the cytotoxicity | statistically significant increase in LDH release |  | 113 | 0 | > 10 | 12.0 [drug]/Cmax | 1.7 [drug]/Cmax | 0.6 [drug]/Cmax | 
Cc1onc(-c2c(F)cccc2Cl)c1C(=O)N[C@@H]1C(=O)N2[C@@H]1SC(C)(C)[C@@H]2C(=O)O [Flucloxacillin] | IDILI+ | IDILI+ | cholestatic rather than hepatocellular | incorrectly classified as not associated with IDILI | 0.1545 | 72.6 | 0 [drug]/Cmax | 0 [drug]/Cmax | 0 [drug]/Cmax | 0 [drug]/Cmax | 0 | no statistically significant increase in LDH | no statistically significant increase in LDH | < 10 | 17.9 | 0 |  |  |  |  | calculated probability for association with IDILI ([2]; best-performing classification model): 0.154; synergy with cytokines to kill HepG2 cells (HepG2 cells; HepG2, 24 h, TNF and/or IFN): did not synergize with cytokines to kill HepG2 cells
CC(=O)[C@]1(O)Cc2c(O)c3c(c(O)c2[C@@H](O[C@H]2C[C@H](N)[C@H](O)[C@H](C)O2)C1)C(=O)c1ccccc1C3=O [Idarubicin] | IDILI− | IDILI− |  |  | 0.1275 | 0.02 | 0 [drug]/Cmax | 0 [drug]/Cmax | 0 [drug]/Cmax | 0 [drug]/Cmax | 0 |  |  | < 10 | 13.9 | 0 |  |  |  |  | 
NNC(=O)c1ccncc1 [Isoniazid] | IDILI+ | IDILI+ |  |  | 0.7562 | 77 | 440.9 [drug]/Cmax | 434.0 [drug]/Cmax | 268.1 [drug]/Cmax | 208.7 [drug]/Cmax | 38.8 | TNF significantly enhanced the cytotoxicity | statistically significant increase in LDH release |  | 57.7 | 0 | > 10 | 427.0 [drug]/Cmax | 248.0 [drug]/Cmax | 169.7 [drug]/Cmax | effect of IFN coexposure on the drug/TNF cytotoxic interaction (HepG2 cells; HepG2, 24 h, TNF and IFN 10 ng/ml each): coexposure to IFN enhanced the cytotoxic interaction; EC10 IFN (HepG2 cells; value corresponding to 10% of Delta, with IFN 10 ng/ml, NA = no significant increase): 420.5 [drug]/Cmax
CC(CN1c2ccccc2Sc2ccccc21)N(C)C (centres unmarked) [Promethazine] | IDILI− | IDILI− |  |  | 0.1275 | 0.06 | 0 [drug]/Cmax | 0 [drug]/Cmax | 0 [drug]/Cmax | 0 [drug]/Cmax | 0 |  |  | < 10 | 17 | 0 |  |  |  |  | 

Source: patent US20200003760A1, “IN-VITRO METHODS FOR CLASSIFYING DRUGS ACCORDING TO THEIR POTENTIAL TO CAUSE LIVER CELL INJURY” (Board of Trustees of Michigan State University, priority 2018, published 2020)
